Laboratory results: ChEMBL document CHEMBL1124516, “Synthesis of 2,3-diaziridinyl-1,4-naphthoquinone sulfonate derivatives as potential antineoplastic agents” (1989)

Columns and labels:
L1210 [1] = assay: Percentage survival time of L1210 (murine leukemia) inoculated mice following 25 mg/kg i.p.; assay type: functional, Mus musculus; conditions: route intraperitoneal
Mus musculus [2] = assay: Number of mice surviving for a period greater than 50 days when a dose of 30 mg/Kg is administered intraperitoneally; tested in 5 mice; assay type: functional
L1210 [3] = assay: Percentage survival time of L1210 (murine leukemia) inoculated mice following 30 mg/kg i.p.; assay type: functional, Mus musculus; conditions: route intraperitoneal
L1210 [4] = assay: Percentage survival time of L1210 (murine leukemia) inoculated mice following 20 mg/kg i.p.; assay type: functional, Mus musculus; conditions: route intraperitoneal
Mus musculus [5] = assay: Average change in weight in mice bearing the L1210 Leukemia, when compound (25 mg/kg) was administered once daily beginning 24 hr after tumor implantation, for 6 consecutive days.; assay type: functional
L1210 [6] = assay: Number L1210 (murine leukemia) inoculated mice surviving for >50 days following 25 mg/kg i.p.; assay type: functional, Mus musculus; conditions: route intraperitoneal
Mus musculus [7] = assay: Average change in weight in mice bearing the L1210 Leukemia, when compound (20 mg/kg) was administered once daily beginning 24 hr after tumor implantation, for 6 consecutive days.; assay type: functional
Mus musculus [8] = assay: Number of mice survived for a period greater than 50 days when a dose of 20 mg/Kg is administered intraperitoneally; tested in 5 mice; assay type: functional
Mus musculus [9] = assay: Average change in weight in mice bearing the L1210 Leukemia, when compound(30 mg/kg) was administered once daily beginning 24 hr after tumor implantation, for 6 consecutive days.; assay type: functional
Mus musculus [10] = assay: The ratio of the survival time of treated to control animals x 100 in mice bearing B16 Melanoma, when compound (50 mg/kg) was administered intraperitoneally; assay type: functional
Mus musculus [11] = assay: The ratio of the survival time of treated to control animals x 100 in mice bearing B16 Melanoma, when compound (150 mg/kg) was administered intraperitoneally; assay type: functional
Mus musculus [12] = assay: Average change in weight in mice bearing the B16 Melanoma, when compound(50 mg/kg) was administered intraperitoneally beginning 24 hr after tumor implantation, daily once for 6 consecutive days.; assay type: functional
Mus musculus [13] = assay: Average change in weight in mice bearing the B16 Melanoma, when compound(100 mg/kg) was administered beginning 24 hr after tumor implantation, daily once for 6 consecutive days.; assay type: functional
Mus musculus [14] = assay: Average change in weight in mice bearing the B16 Melanoma, when compound(150 mg/kg) was administered beginning 24 hr after tumor implantation, daily once for 6 consecutive days.; assay type: functional
Mus musculus [15] = assay: Survival of mice bearing B16 melanoma cells greater than 50 days when treated with a dose of 50 mg/Kg administered intraperitoneally; tested in 5 mice; assay type: functional
Mus musculus [16] = assay: Survival of mice bearing B16 melanoma cells greater than 50 days when treated with a dose of 150 mg/Kg administered intraperitoneally; tested in 5 mice; assay type: functional
Mus musculus [17] = assay: Survival of mice bearing B16 melanoma cells greater than 50 days when treated with a dose of 100 mg/Kg administered intraperitoneally; tested in 5 mice; assay type: functional
Mus musculus [18] = assay: The ratio of the survival time of treated to control animals x 100 in mice bearing B16 Melanoma, when compound (100 mg/kg) was administered intraperitoneally; assay type: functional

| SMILES | Activity (L1210 [1]) | Survivals (Mus musculus [2]) | Activity (L1210 [3]) | Activity (L1210 [4]) | Average body weight change (Mus musculus [5]) [%] | Survivals (L1210 [6]) | Average change in body weight (Mus musculus [7]) [%] | Survivals (Mus musculus [8]) | Average change in body weight (Mus musculus [9]) [%] | Activity (Mus musculus [10]) | Activity (Mus musculus [11]) | Average body weight change (Mus musculus [12]) [%] | Average change in body weight (Mus musculus [13]) [%] | Average change in body weight (Mus musculus [14]) [%] | Survivals (Mus musculus [15]) | Survivals (Mus musculus [16]) | Survivals (Mus musculus [17]) | Activity (Mus musculus [18]) |
| --- | --- | --- | --- | --- | --- | --- | --- | --- | --- | --- | --- | --- | --- | --- | --- | --- | --- | --- |
| O=C1C(N2CC2)=C(N2CC2)C(=O)c2c(OS(=O)(=O)/C=C/c3ccccc3)cccc21 | 130 | 0 | 150 | 132 | 1.9 | 0 | -3.5 | 0 | -1 | – | – | – | – | – | – | – | – | – |
| CCc1ccc(S(=O)(=O)Oc2cccc3c2C(=O)C(N2CC2)=C(N2CC2)C3=O)cc1 | 151 | 0 | 172 | 147 | 13.6 | 0 | 8.4 | 0 | 9.9 | – | – | – | – | – | – | – | – | – |
| CC1(C)C2CCC1(CS(=O)(=O)Oc1cccc3c1C(=O)C(N1CC1)=C(N1CC1)C3=O)C(=O)C2 (centres undefined) | 148 | 0 | 168 | 136 | -3.5 | 0 | -9.3 | 0 | -9.2 | – | – | – | – | – | – | – | – | – |
| CN(C)c1cccc2c(S(=O)(=O)Oc3cccc4c3C(=O)C(N3CC3)=C(N3CC3)C4=O)cccc12 | 115 | 0 | 117 | 110 | 3.8 | 0 | 2.2 | 0 | 3.9 | – | – | – | – | – | – | – | – | – |
| O=C1C(N2CC2)=C(N2CC2)C(=O)c2c(OS(=O)(=O)CCCCl)cccc21 | 145 | 0 | 150 | 123 | -12.1 | 0 | -7.5 | 0 | -27.6 | – | – | – | – | – | – | – | – | – |
| Cc1cc(C)c(S(=O)(=O)Oc2cccc3c2C(=O)C(N2CC2)=C(N2CC2)C3=O)c(C)c1 | 113 | 0 | 124 | 113 | -2.5 | 0 | -0.4 | 0 | -2.6 | – | – | – | – | – | – | – | – | – |
| O=C1C(N2CC2)=C(N2CC2)C(=O)c2c(OS(=O)(=O)c3ccc([N+](=O)[O-])cc3[N+](=O)[O-])cccc21 | 105 | 0 | 100 | 111 | 4.8 | 0 | 2.3 | 0 | -1.3 | – | – | – | – | – | – | – | – | – |
| O=C1C(N2CC2)=C(N2CC2)C(=O)c2c(OS(=O)(=O)c3ccc(F)cc3)cccc21 | 200 | 5 | – | – | -5.7 | 4 | 0.3 | 5 | -3.4 | 159 | 177 | -5.2 | -14.3 | -20.3 | 0 | 0 | 0 | 182 |
| O=C1C(N2CC2)=C(N2CC2)C(=O)c2c(OS(=O)(=O)c3cccc4cccnc34)cccc21 | 418 | 3 | 291 | 332 | -6.5 | 4 | -6.6 | 3 | -8 | 195 | 239 | -1.7 | -8.2 | -14.3 | – | – | – | 219 |
| CCCCCCCCCCCCCCCCS(=O)(=O)Oc1cccc2c1C(=O)C(N1CC1)=C(N1CC1)C2=O | 91 | 0 | 91 | 96 | 9.9 | 0 | 13 | 0 | 9.7 | – | – | – | – | – | – | – | – | – |
| O=C1C(N2CC2)=C(N2CC2)C(=O)c2c(OS(=O)(=O)c3ccc(Br)cc3)cccc21 | 165 | 0 | 179 | 214 | 11.2 | 0 | 12.2 | 0 | 8.3 | 143 | 151 | 1.1 | 2.5 | 0.7 | – | – | – | 153 |
| O=C1C(N2CC2)=C(N2CC2)C(=O)c2c(OS(=O)(=O)c3cccc4ccccc34)cccc21 | 104 | 0 | 104 | 107 | 9.2 | 0 | 14.6 | 0 | 13.7 | – | – | – | – | – | – | – | – | – |
| CC(C)c1cc(C(C)C)c(S(=O)(=O)Oc2cccc3c2C(=O)C(N2CC2)=C(N2CC2)C3=O)c(C(C)C)c1 | 102 | 0 | 100 | 100 | 9 | 0 | 7.8 | 0 | 7.4 | – | – | – | – | – | – | – | – | – |
| O=C1C(N2CC2)=C(N2CC2)C(=O)c2c(OS(=O)(=O)c3cccs3)cccc21 | – | 5 | – | 165 | -4.7 | 5 | -2.3 | 4 | -6.4 | 156 | 77 | -10.8 | -18.2 | -22.7 | – | – | – | 161 |
| CC(C)(C)c1ccc(S(=O)(=O)Oc2cccc3c2C(=O)C(N2CC2)=C(N2CC2)C3=O)cc1 | 98 | 0 | 98 | 104 | 11.8 | 0 | 12.8 | 0 | 6.7 | – | – | – | – | – | – | – | – | – |
| O=C1C(N2CC2)=C(N2CC2)C(=O)c2c(OS(=O)(=O)c3ccc([N+](=O)[O-])cc3)cccc21 | 293 | 4 | 152 | 402 | -12.9 | 3 | -11.1 | 4 | -13.1 | – | – | – | – | – | – | – | – | – |
| CCCCS(=O)(=O)Oc1cccc2c1C(=O)C(N1CC1)=C(N1CC1)C2=O | 124 | 0 | 131 | 131 | -10.9 | 0 | 0.1 | 0 | -11.3 | – | – | – | – | – | – | – | – | – |
| O=C1C(N2CC2)=C(N2CC2)C(=O)c2c(OS(=O)(=O)c3ccc(I)cc3)cccc21 | 146 | 0 | 146 | 127 | 11.1 | 0 | 14.6 | 0 | 15.8 | 132 | 141 | 4.1 | 0.6 | -4.1 | – | – | – | 138 |
| Cc1ccc(S(=O)(=O)Oc2cccc3c2C(=O)C=C(N2CC2)C3=O)cc1 | 103 | 0 | 111 | 102 | 5.1 | 0 | 7.3 | 0 | 1.2 | – | – | – | – | – | – | – | – | – |
| O=C1C(N2CC2)=C(N2CC2)C(=O)c2c(OS(=O)(=O)Cc3ccccc3)cccc21 | 153 | 0 | 141 | 127 | 3.1 | 0 | 2.4 | 0 | -3 | – | – | – | – | – | – | – | – | – |
